Assay results published in ChEMBL document CHEMBL1133878, “Selectivity enhancement induced by substitution of non-natural analogues of arginine and lysine in arginine-based thrombin inhibitors” (Bioorg Med Chem Lett, 2001).

Key:
[1] = molecular target: Thrombin & trypsin (Homo sapiens) (UniProt P00734+P07477+P07478+P35030); test: Selectivity ratio (trypsin/thrombin) was calculated; type: protein assay
Serine protease 1 = molecular target: T1, Serine protease 1 (Bos taurus, UniProt P00760); test: Binding affinity determined against trypsin by Dixon method
T1 sequence (P00760 whole entry): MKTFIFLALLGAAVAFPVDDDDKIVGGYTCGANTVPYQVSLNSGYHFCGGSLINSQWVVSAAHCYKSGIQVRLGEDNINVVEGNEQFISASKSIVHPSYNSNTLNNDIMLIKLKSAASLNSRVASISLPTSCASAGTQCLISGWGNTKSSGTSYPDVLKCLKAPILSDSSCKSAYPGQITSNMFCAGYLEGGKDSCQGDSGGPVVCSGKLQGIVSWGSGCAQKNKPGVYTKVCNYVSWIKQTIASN

Prothrombin = Prothrombin (Homo sapiens, UniProt P00734); test: Binding affinity determined against thrombin by Dixon method

| Selectivity ratio [1] | Ki (Serine protease 1) [µM] | Ki (Prothrombin) [µM] | SMILES |
| --- | --- | --- | --- |
| 29.4 | 116 |  | CN(C)c1cccc2c(S(=O)(=O)NC(CCCNC3=NCCN3)C(=O)N3CCCCC3)cccc12 (stereo unspecified) |
| 962 | 922 | 0.958 | C/N=C(/N)NCCCC(NS(=O)(=O)c1cccc2c(N(C)C)cccc12)C(=O)N1CCCCC1 (stereo unspecified) |
| 525 | 278 | 0.53 | CN(C)c1cccc2c(S(=O)(=O)NC(CCCN3CCN=C3N)C(=O)N3CCCCC3)cccc12 (stereo unspecified) |
|  |  | > 10 | CNC(C)CCCCC(NS(=O)(=O)c1cccc2c(N(C)C)cccc12)C(=O)N1CCCCC1 (stereo unspecified) |
| 178 | 337 | 1.89 | CC/N=C(/N)NCCCC(NS(=O)(=O)c1cccc2c(N(C)C)cccc12)C(=O)N1CCCCC1 (stereo unspecified) |
|  |  | > 10 | CN(C)c1cccc2c(S(=O)(=O)NC(CCCNC3=NCCCN3)C(=O)N3CCCCC3)cccc12 (stereo unspecified) |
| 28.2 | 2.34 | 0.083 | CN(C)c1cccc2c(S(=O)(=O)NC(CCCN=C(N)N)C(=O)N3CCCCC3)cccc12 (stereo unspecified) |
